From the CheMixHub viscosity set

Assay: xn = mol fraction of the nth substance listed

CCCCCO + CCCCCCCC
viscosity [mPa·s], 101 kPa
Conditions	298.15 K	318.15 K
x1 = 0.0618	0.537	0.426
x1 = 0.1297	0.57	0.449
x1 = 0.2063	0.617	0.484
x1 = 0.2744	0.671	0.517
x1 = 0.3509	0.749	0.57
x1 = 0.5159	1.007	0.72
x1 = 0.5831	1.166	0.813
x1 = 0.6979	1.536	1.025
x1 = 0.8127	2.072	1.298
x1 = 0.9043	2.694	1.611
x1 = 0.952	3.056	1.814

ClC(Cl)=C(Cl)Cl + O=[N+]([O-])c1ccccc1
303.15 K, 101 kPa
Conditions	viscosity [mPa·s]
x1 = 0.1516	1.446
x1 = 0.2128	1.376
x1 = 0.2966	1.288
x1 = 0.3642	1.221
x1 = 0.4582	1.144
x1 = 0.5496	1.074
x1 = 0.6451	1.012
x1 = 0.7624	0.941
x1 = 0.8428	0.896
x1 = 0.9206	0.856

CCCCCCCC + Cc1ccccc1
303.15 K, 101.33 kPa
Conditions	viscosity [mPa·s]
x2 = 0.2634	0.47
x2 = 0.4184	0.464
x2 = 0.8282	0.485
x2 = 0.888	0.498
x2 = 0.9417	0.508

O=[N+]([O-])c1ccccc1 + CCC(C)=O
303.15 K, 101 kPa
Conditions	viscosity [mPa·s]
x2 = 0.1487	1.32
x2 = 0.3244	1.039
x2 = 0.4126	0.925
x2 = 0.4992	0.82
x2 = 0.7145	0.607
x2 = 0.78	0.55

COCC(C)O (stereo not given) + O
viscosity [mPa·s], 101.33 kPa
Conditions	298.15 K	308.15 K	318.15 K
x1 = 0.0222	1.29	1	0.8257
x1 = 0.0396	1.651	1.236	0.98
x1 = 0.1131	3.035	2.119	1.579
x1 = 0.1959	3.731	2.615	1.925
x1 = 0.301	3.864	2.73	2.015
x1 = 0.3583	3.811	2.663	1.978
x1 = 0.4651	3.515	2.438	1.841
x1 = 0.5264	3.124	2.3	1.744
x1 = 0.7332	2.414	1.823	1.42
x1 = 0.8372	2.094	1.61	1.277
x1 = 0.9035	1.929	1.49	1.189

CCCCCCCC + c1ccccc1
298.15 K, 101.33 kPa
Conditions	viscosity [mPa·s]
x1 = 0.04472	0.5829
x1 = 0.09184	0.5595
x1 = 0.1715	0.5352
x1 = 0.2954	0.5061
x1 = 0.4088	0.4934
x1 = 0.4907	0.4904
x1 = 0.5855	0.4924
x1 = 0.739	0.4929
x1 = 0.928	0.5124
